Entries after “also recorded” stand apart in the source; their conditions may differ.
Tests used:
[1] = target: T1, BRD4 (BD1) (Homo sapiens, UniProt O60885); experiment: AlphaLISA, first bromodomain of BRD4; type: binding; conditions: 10 μM
T1 construct: AlphaLISA assays for the first (black columns, BD1) and the second (grey columns, BD2) bromodomains of BRD4
Description: (§3) The Amplified Luminescent Proximity Homogenous Assay (AlphaLISA©) is the homogenous and chemiluminescence-based method, used to explore the direct interaction of the identified small molecules with BRD4 and therefore, measure the IC50 values of the direct BRD4 inhibitors.
(§4) Briefly, in this assay, the biotinylated histone peptide substrate is captured by streptavidin-coupled donor beads. The GST-tagged bromodomain is recognized and bound by an anti-GST antibody conjugated with an acceptor bead. In absence of an inhibitor, the bromodomain binds to histone peptide substrate. […] The event of a signal (alpha count) can only take place when the interaction partners are in proximity (<200 nm).
(§5) The AlphaLISA was performed for both bromodomains of BRD4 using the BRD4 (BD1) Inhibitor Screening Kit (BPS Bioscience) and BRD4 (BD2) Inhibitor Screening Kit (BPS Bioscience) following the manufacturer's protocol. For the GST full length BRD4 purified from BL21 cells, a mixture of acetylated substrates from the BD1 and BD2 Inhibitor Screening Kit reported above was used.
(§6) Compounds were tested at a final assay concentration of 10 μM in duplicates. […] Reaction was initiated by adding one of the two bromodomains (BD1 or BD2) or the GST full length BRD4. […]

[2] = target: T2, BRD4 (BD2) (Homo sapiens, UniProt O60885); experiment: AlphaLISA, second bromodomain of BRD4; type: binding; conditions: 10 μM
T2 construct: AlphaLISA assays for the first (black columns, BD1) and the second (grey columns, BD2) bromodomains of BRD4
Description: as §3, §4, §5, §6

[3] = target: T3, TAF1 (2) (Homo sapiens, UniProt P21675); experiment: BromoScan / BromoELECT / BromoKdELECT, TAF1 (2); type: binding
T3 construct: the second bromodomain of TAF1 (TAF1 (2)); purchased DiscoverX Corporation (contract assay); host or cells: T7 phage in E. coli host derived from BL21
T3 sequence (P21675 1519-1628 limits assumed): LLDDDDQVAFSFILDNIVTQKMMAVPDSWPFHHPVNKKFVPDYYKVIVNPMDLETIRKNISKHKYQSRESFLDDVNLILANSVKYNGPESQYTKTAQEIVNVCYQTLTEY
Description: (§1) Bubbles indicate the percentage of inhibition of the binding of the analyzed bromodomains to an acetylated substrate. […] (g) BromoKdELECT assay for CeMMEC1 against TAF1 (2). […] (i) Docking of CeMMEC1 to the second bromodomain of TAF1. 3D model (top panel) and 2D ligand interaction diagram (bottom panel). Red dots in the 3D model indicate water molecules.
(§2) (c) not used (d) KinomeScan profile for CeMMEC1 (10 μM). Bubbles indicate the percentage of inhibition of the binding of the analyzed kinase to an immobilized ligand.

[4] = target: BRD4 (Homo sapiens, UniProt O60885); experiment: BromoScan profile, BRD4; type: binding; conditions: 10 μM
Description: as §1

[5] = target: CREBBP (Homo sapiens, UniProt Q92793); experiment: BromoScan / BromoELECT / BromoKdELECT, CREBBP; type: binding
Description: as §1, §2

[6] = target: T4, EP300 (Homo sapiens, UniProt Q09472); experiment: BromoScan / BromoKdELECT, EP300; type: binding
T4 sequence (Q09472 1049-1156 limits assumed): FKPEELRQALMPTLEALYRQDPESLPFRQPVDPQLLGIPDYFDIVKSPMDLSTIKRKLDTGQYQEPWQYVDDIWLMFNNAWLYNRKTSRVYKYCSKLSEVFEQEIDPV
Description: as §1, §2

[7] = target: T5, BRD9 (Homo sapiens, UniProt Q9H8M2); experiment: BromoScan / BromoKdELECT, BRD9; type: binding
T5 sequence (Q9H8M2 136-240 limits assumed): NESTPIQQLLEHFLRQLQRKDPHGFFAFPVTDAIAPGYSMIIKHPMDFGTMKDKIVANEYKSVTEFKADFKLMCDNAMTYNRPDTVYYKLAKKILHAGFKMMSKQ
Description: as §1, §2

[8] = system: 97 representative kinases; experiment: KinomeScan profile; type: binding; conditions: 10 μM; 97 kinases
Description: . The assay was done in duplicate (mean±STD); (b) BromoKdELECT assay for CeMMEC1 against TAF1 (2), BRD9, CREBBP and EP300 bromodomains (11 dilutions, from 10 to 0.017 μM). (c) not used (d) KinomeScan profile for CeMMEC1 (10 μM). Bubbles indicate the percentage of inhibition of the binding of the analyzed kinase to an immobilized ligand. (e) BromoELECT assay for CeMMEC1 and analogs A1, A2, 05, 10, 13, 24, 25, 26, 27, 29, 33 and 39 (10 μM) against BRD4 (1), BRD4 (2), BRD9, CREBBP, EP300 and TAF1 (2). (f, g) Docking poses of analog 30 to TAF1 (green) and BRD4 (magenta). (h) Docking of compound 29 to TAF1, no suitable pose could be identified for BRD4. (i) BromoELECT assay for analog 29 (10 μM) against BRD4 (1), BRD9, CREBBP, EP300 and TAF1 (2).

[9] = target: T6, TAF1 (Homo sapiens, UniProt P21675); experiment: TAF1 binding assay (FRET/HTRF peptide displacement); conditions: FRET analysis, data not shown
T6 construct: TAF1 second bromodomain (Uniprot P21675, residues 1501-1634); made in house; host or cells: E. coli BL21 (DE3)-R3-pRARE2 (stated for the His-tagged construct)
T6 sequence (P21675 1501-1634): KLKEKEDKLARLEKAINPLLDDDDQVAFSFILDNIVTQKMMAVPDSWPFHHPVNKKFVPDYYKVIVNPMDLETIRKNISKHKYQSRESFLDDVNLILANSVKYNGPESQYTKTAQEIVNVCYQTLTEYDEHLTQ
Description: TAF1 binding assays were conducted using the EPIgeneous™ Binding Domain kit B (Cisbio Bioassays) according to manufacturer's instructions. Binding was determined by the displacement of an acetylated biotin-peptide from a GST tagged TAF1 protein using HTRF with a Eu3+ conjugated GST antibody donor and streptavidin conjugated acceptor. Compounds were dispensed into assay plates, ProxiPlate-384 Plus (Perkin Elmer) using an Echo 525 Liquid Handler (Labcyte). Binding assays were conducted in a final volume of 20 μl with 5 nM TAF1-GST, 50 nM peptide (SGRGK (ac)GGK (ac)GLGK (ac)GGAK (ac)RHRK (biotin)-acid), 6.25 nM Streptavidin-XL665, 1:200 Anti-GST-Eu3+ cryptate and 0.1% DMSO. Assay reagents were dispensed into plates using a Multidrop combi (Thermo Scientific) and incubated at room temperature for 3 hours. Fluorescence was measured using a PHERAstar microplate reader (BMG) using the HTRF module with dual emission protocol (A=ex. 320 nm em. 665 nm, B=ex. 320 nm em. 620 nm). Raw data were processed to give an HTRF ratio (channel A/B*10000), which was used to generate IC50 curves.

[10] = system: REDS3 cells; experiment: RFP reporter expression in REDS3 cells (live cell imaging); type: cell-based, human
Description: Cells were seeded on clear flat bottom 96-well or 384-well plates (Corning) and treated with the indicated compounds for the specified conditions. Live cell imaging pictures were taken with the Operetta High Content Screening System (PerkinElmer), 20× objective and non-confocal mode.
Only RFP-positive nuclei were detected and counted.
The increase of RFP fluorescence, detected with the Operetta High Content Screening System (PerkinElmer), 20× objective and non-confocal mode, was used as read-out.
Briefly, the screening was divided in three parts called respectively 1) primary screening, 2) follow up and 3) validation. During the primary screening REDS3 cells were treated with 10 μM of every compound, and live cell imaging pictures were taken in order to assess their ability to induce RFP expression 24 hours later.

[11] = system: c-MYC expression in WT-KBM7; experiment: c-MYC expression by RT-PCR in WT-KBM7; type: cell-based, human; conditions: 1, 10 and 20 μM, 24 hours
Description: (c) Percentage of c-MYC expression in WT-KBM7 treated with the selected compounds, assessed by RT-PCR. 1, 10 and 20 μM of each compound were used to treat cells for 24 hours; DMSO was used as negative control and (S)-JQ1 as positive control. Three biological replicates were performed (mean±STD).
RNA extraction was performed with TRIzol Reagent (Life Technologies) according to the manufacturer's protocol and Reverse Transcription (RT) was performed using the High Capacity cDNA Reverse Transcription Kit (Applied Biosystems) following the standard protocol.
QPCR was performed using the Power SYBR Green Master mix (Invitrogen) as described in the manufacturer's protocol.
Real-time amplification results were normalized to the endogenous housekeeping genes Actin or GAPDH. The relative quantities were calculated using the comparative CT (Cycle Threshold) Method (ΔΔCT Method).

[12] = system: THP1 cells; experiment: Cell viability of THP1 cells, combination with (S)-JQ1; type: cell-based, human
[13] = system: H23 cells; experiment: Cell viability of H23 cells, combination with (S)-JQ1; type: cell-based
[14] = system: THP1 cells; experiment: Cell cycle assay in THP1 cells; conditions: 48 hours
Description: (e) Quantification of cells in S-phase by staining the nuclei with PI and analyzing DNA content by FACS. […] Three different biological replicates were performed and 30,000 cells were analysed each time (mean±STD).
For cell cycle analysis, cells were fixed with 70% ethanol for 24 hours, washed with PBS/0.1%-Tween and incubated with RNase for 20 minutes. Nuclei were stained with 5 μg/ml PI (propidium iodide, Sigma) for 10 minutes prior to FACS analysis (BD FACSCalibur Flow Cytometer).

[15] = system: THP1 cells; experiment: AnnexinV apoptosis assay in THP1 cells; conditions: 72 hours
Description: (f) Quantification of AnnexinV positive cells from immunofluorescence images. […] At least 3 biological replicates were performed and more than 1,500 cells were quantified for each point (mean±STD).
Apoptotic cells were detected using the Annexin V-FITC Apoptosis detection kit (Abcam) according to the manufacturer's instruction. Apoptosis quantification was performed with the Harmony software (PerkinElmer) for nuclei and cytoplasm detection and analysis, adapted for the nucleus diameter range and cell shape of the specific cell line used.

[16] = system: KBM7 cells; experiment: CellTiterGlo viability of control and TAF1 downregulated KBM7 cells; conditions: shRNA TAF1 vs control, 96 hours

CREBBP, sequence (Q92793 1085-1192 limits assumed): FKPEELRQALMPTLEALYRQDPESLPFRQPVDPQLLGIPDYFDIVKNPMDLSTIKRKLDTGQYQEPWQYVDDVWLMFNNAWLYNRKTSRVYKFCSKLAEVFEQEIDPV

- binding constant, TAF1 (2) ([3]; BromoKdELECT (FIG. 8b)): sub-micromolar binding constants
- Kd ([3]; BromoKdELECT assay (FIG. 4g)): 1.4 µM
- binding to TAF1 (2) ([3]; BromoScan/BromoELECT, 10 μM): high affinity
- binding to BRD4 [4]: only bound BRD4 very weakly
- binding constant, CREBBP ([5]; BromoKdELECT (FIG. 8b)): sub-micromolar binding constants
- binding to CREBBP ([5]; BromoScan/BromoELECT, 10 μM): high affinity
- binding constant, EP300 ([6]; BromoKdELECT (FIG. 8b)): sub-micromolar binding constants
- binding to EP300 ([6]; BromoScan, 10 μM): high affinity
- binding constant, BRD9 ([7]; BromoKdELECT (FIG. 8b)): sub-micromolar binding constants
- binding to BRD9 ([7]; BromoScan, 10 μM): high affinity
Compound: Cn1cc(C(=O)Nc2ccc3c(c2)OCCO3)c2ccccc2c1=O [CeMMEC1]
- binding to the first bromodomain of BRD4 [1]: neither able to bind the first nor the second bromodomain of BRD4
- binding to the second bromodomain of BRD4 [2]: neither able to bind the first nor the second bromodomain of BRD4
- inhibition of kinases [8]: ≤ 60%
- displacement of tetra-acetylated H4 peptide from TAF1 binding site [9]: displaced a tetra-acetylated H4 peptide with good efficacy
- RFP expression in REDS3 cells in combination with (S)-JQ1 ([10]; combination with (S)-JQ1): further boosted RFP expression beyond the increase in single treatments
- RFP expression in REDS3 cells ([10]; single agent): expressed RFP detected by live cell imaging in a dose-dependent manner; also recorded: comparable induction of RFP expression in REDS3 cells
- c-MYC expression [11]: capable of reducing the expression of this oncogene in a dose-dependent manner
- cell viability, combination with (S)-JQ1 [12]: more efficiently impairing cell viability than the individual treatments
- synergy with (S)-JQ1 (Bliss independence test) [12]: confirmed the synergism
- cell viability, combination with (S)-JQ1 [13]: more efficiently impairing cell viability than the individual treatments
- synergy with (S)-JQ1 (Bliss independence test) [13]: confirmed the synergism
- number of cells in S-phase [14]: clear and dose-dependent decrease of the number of cells in S-phase
- apoptosis (AnnexinV staining) [15]: induced apoptosis
- cell viability with TAF1 downregulation [16]: impaired cell viability in TAF1 downregulated cells
